Experimental data reported in the SangsterLogP compilation.

Assay: not given

Structure (SMILES)	logP
CCCCCF	2.33
CCCBr	2.1
CCOC(=O)CC	1.21

Assay: method code SF-AS, from DOI: 10.1021/jo01283a049

Structure (SMILES)	logP
c1ccc2cnccc2c1	2.08
OCc1ccc2c(c1)OCO2	1.05
CNC(=S)Nc1ccccc1	0.85

Results, then the compound that gave them:

logP	Structure (SMILES)
1.52	CC12CCC(C(=O)C1=O)C2(C)C (stereo not given)
0.85	CN(C(N)=S)c1ccccc1
1.95	CCSCC

Assay: method code SF-CR, from DOI: 10.1021/jo01283a049

Structure (SMILES)	logP
CCCC(N)=O	-0.21
